# Source: the supplement of paper PMC10307832
# Key:
# Assay in all cases: relative viability (nuclei count vs DMSO), 5 days (fraction); higher = more cells survive
# [1] = compound: CCN1C(=O)C2=CC(=C(N=C2N(C1=O)C3CC3)N)C(=O)N + Cc1nc(Nc2ncc(C(=O)Nc3c(C)cccc3Cl)s2)cc(N2CCN(CCO)CC2)n1 [Dasatinib] (partner 0.075 µM)
# Summary of the method: (§1)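 The day after seeding in 1536-well plates, lung cancer cell lines were treated by pin tool with a single drug, or with a fixed anchor-drug dose together with five library-drug doses (not always all listed) in √10 steps. After 5 days, a combined fix-and-stain solution (final 0.05% Triton X-100, 1% formaldehyde, 1 ug/ml Hoechst) was added. Nuclei counted on 4× images gave relative viability as treated counts over vehicle counts, reported as the median of duplicate plates.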
# [2] = compound: CCN1C(=O)C2=CC(=C(N=C2N(C1=O)C3CC3)N)C(=O)N + COc1cc2c(Oc3ccc(NC(=O)C4(C(=O)Nc5ccc(F)cc5)CC4)cc3F)ccnc2cc1OCCCN1CCOCC1 [Foretinib] (partner 0.25 µM)
# Summary of the method: as §1
# [3] = compound: CCN1C(=O)C2=CC(=C(N=C2N(C1=O)C3CC3)N)C(=O)N + CC1(C)CCC(c2ccc(Cl)cc2)=C(CN2CCN(c3ccc(C(=O)NS(=O)(=O)c4ccc(N[C@H](CCN5CCOCC5)CSc5ccccc5)c(S(=O)(=O)C(F)(F)F)c4)cc3)CC2)C1 [Navitoclax] (partner 0.5 µM)
# Summary of the method: as §1
# [4] = compound: CCN1C(=O)C2=CC(=C(N=C2N(C1=O)C3CC3)N)C(=O)N + O=C(c1cc(Cc2n[nH]c(=O)c3ccccc23)ccc1F)N1CCN(C(=O)C2CC2)CC1 [Olaparib] (partner 8 µM)
# Summary of the method: as §1
# [5] = compound: CCN1C(=O)C2=CC(=C(N=C2N(C1=O)C3CC3)N)C(=O)N + Nc1ncn([C@H]2C[C@H](O)[C@@H](CO)O2)c(=O)n1 [Decitabine] (partner 2 µM)
# Summary of the method: as §1
Cell Line,relative viability ([1]; first compound 0.253 µM),relative viability ([1]; first compound 0.8 µM),relative viability ([1]; first compound 2.53 µM),relative viability ([1]; first compound 8 µM),relative viability ([2]; first compound 0.253 µM),relative viability ([2]; first compound 0.8 µM),relative viability ([2]; first compound 2.53 µM),relative viability ([2]; first compound 8 µM),relative viability ([3]; first compound 0.253 µM),relative viability ([3]; first compound 0.8 µM),relative viability ([3]; first compound 2.53 µM),relative viability ([3]; first compound 8 µM),relative viability ([4]; first compound 0.253 µM),relative viability ([4]; first compound 0.8 µM),relative viability ([4]; first compound 2.53 µM),relative viability ([4]; first compound 8 µM),relative viability ([5]; first compound 0.253 µM),relative viability ([5]; first compound 0.8 µM),relative viability ([5]; first compound 2.53 µM),relative viability ([5]; first compound 8 µM)
PC-14,0.244,0.258,0.252,0.298,0.914,0.961,0.954,0.969,1.01,1.06,0.935,0.956,0.196,0.26,0.306,0.308,0.207,0.171,0.244,0.193
NCI-H3122,0.772,0.803,0.81,0.788,1.02,0.991,0.968,0.916,1.06,1.02,1.02,1.01,0.636,0.659,0.624,0.581,0.396,0.432,0.434,0.427
SK-MES-1,0.409,0.393,0.393,0.448,0.946,0.876,0.94,0.837,1.03,1.28,1.22,1.27,0.77,0.76,0.713,0.665,0.381,0.359,0.4,0.365
NCI-H1944,0.22,0.217,0.213,0.217,0.976,0.91,0.843,0.949,1.02,1.04,0.978,1.02,0.4,0.411,0.374,0.437,0.485,0.423,0.393,0.434
LK-2,0.312,0.294,0.303,0.221,1.03,1.11,1.05,1.6,0.934,0.937,0.976,1.06,0.641,0.706,0.575,0.596,0.249,0.31,0.317,0.277
RERF-LC-KJ,0.76,0.82,0.676,0.795,0.868,0.875,0.898,0.884,1.21,0.947,0.767,0.923,0.887,0.89,0.883,0.897,0.772,0.742,0.68,0.593
COR-L23,0.573,0.562,0.456,0.531,0.91,1.03,1.08,0.947,1.05,0.939,1.03,1.04,0.413,0.319,0.19,0.398,0.442,0.467,0.428,0.375
NCI-H1355,0.728,0.717,0.701,0.725,0.996,1.01,0.963,0.937,0.969,0.987,0.861,0.921,0.8,0.702,0.759,0.721,0.325,0.331,0.382,0.339
NCI-H460,0.5,0.541,0.592,0.452,0.992,1.04,0.979,0.943,1.17,1.08,1.07,1.14,0.432,0.364,0.433,0.445,0.454,0.462,0.524,0.301
NCI-H1993,0.511,0.49,0.477,0.497,0.819,0.751,0.625,0.822,0.994,0.875,0.797,0.757,1.57,0.75,1.05,1.08,0.677,0.586,0.555,0.701
ChaGo-K-1,0.6,0.664,0.614,0.527,0.873,0.97,0.895,0.948,1.05,0.782,1.11,0.958,0.442,0.437,0.404,0.434,0.529,0.555,0.489,0.449
HCC-15,0.634,0.598,0.61,0.598,1.1,1.05,1.07,0.985,0.692,0.753,0.683,0.69,0.749,0.774,0.651,0.725,0.596,0.663,0.624,0.603
NCI-H23,0.786,0.746,0.762,0.656,0.942,1.13,1.07,1.11,0.772,0.924,0.659,0.769,0.325,0.292,0.336,0.332,0.315,0.305,0.289,0.32
NCI-H1395,0.395,0.392,0.405,0.405,1.01,0.868,0.952,0.991,1.1,1.34,1.13,1.73,0.43,0.481,0.457,0.491,0.698,0.75,0.707,0.609
NCI-H1666,,0.828,0.877,0.762,,0.857,0.948,1.04,0.991,0.942,0.645,0.867,0.719,0.724,0.856,0.737,0.615,0.688,0.728,0.68
NCI-H2405,0.196,0.185,0.227,0.174,1.04,1.05,1.07,1.06,1.13,0.882,1.01,1.07,0.9,,0.904,0.91,0.771,,0.718,0.669
NCI-H2009,0.289,0.291,0.275,0.259,1.2,1.18,1.2,1.12,1.15,1.14,1.11,1.08,0.688,0.665,0.667,0.71,0.385,0.409,0.394,0.379
HCC-78,0.368,,0.595,0.365,0.532,,0.582,0.502,0.436,0.788,0.691,0.94,0.807,0.902,0.691,0.959,0.681,0.636,0.726,0.639

Cell Line,relative viability ([1]; first compound 0.253 µM),relative viability ([1]; first compound 0.8 µM),relative viability ([1]; first compound 2.53 µM),relative viability ([1]; first compound 8 µM),relative viability ([2]; first compound 0.253 µM),relative viability ([2]; first compound 0.8 µM),relative viability ([2]; first compound 2.53 µM),relative viability ([2]; first compound 8 µM),relative viability ([3]; first compound 0.253 µM),relative viability ([3]; first compound 0.8 µM),relative viability ([3]; first compound 2.53 µM),relative viability ([3]; first compound 8 µM),relative viability ([4]; first compound 0.253 µM),relative viability ([4]; first compound 0.8 µM),relative viability ([4]; first compound 2.53 µM),relative viability ([4]; first compound 8 µM),relative viability ([5]; first compound 0.253 µM),relative viability ([5]; first compound 0.8 µM),relative viability ([5]; first compound 2.53 µM),relative viability ([5]; first compound 8 µM)
NCI-H2170,0.518,0.549,0.596,0.522,1.02,1,0.954,0.989,0.576,0.544,0.608,0.595,0.573,0.646,0.565,0.601,0.495,0.488,0.462,0.404
NCI-H1793,,0.434,0.32,0.419,,0.612,0.575,0.679,0.701,0.385,,0.404,0.921,0.731,0.851,0.875,0.527,0.6,0.531,0.546
HCC-366,,0.656,0.518,0.611,,0.91,0.951,0.919,0.985,0.991,1.1,1.05,0.351,0.361,0.361,0.37,0.294,0.346,0.341,0.284
ABC-1,0.559,0.473,0.565,0.56,1.19,0.873,0.908,1.05,,,,,0.92,,1.05,0.742,0.996,,1.17,1.05
NCI-H1703,,,,,0.393,0.432,0.328,0.372,1.01,1.04,1.14,1.46,0.702,0.616,0.384,0.379,,,,
LCLC-103H,0.453,0.426,0.457,0.445,0.852,0.721,0.728,0.922,,,,,0.739,0.754,0.74,0.772,0.723,0.699,0.753,0.702
NCI-H2342,0.27,0.294,0.349,0.323,1.08,0.941,1.1,1.03,,,,,0.42,0.467,0.421,0.492,0.642,0.729,0.701,0.766
SW 900,0.447,0.599,0.68,0.511,1.03,0.996,0.837,1.03,,,,,0.84,1.1,0.955,0.928,0.347,0.511,0.49,0.443
NCI-H522,0.761,0.858,0.992,0.753,,,,,,,,,0.6,0.678,0.555,0.65,0.56,0.73,0.748,0.723
CAL-12T,0.466,0.377,0.452,0.462,1.09,1.18,1.09,1.01,1.14,1.1,1.06,1.2,0.734,0.717,0.682,0.658,,,,
NCI-H661,0.911,0.911,0.898,0.895,0.989,1.08,0.939,1.01,,,,,0.774,0.782,0.672,0.748,0.544,0.551,0.517,0.543
NCI-H2228,0.505,0.467,0.508,0.55,0.95,0.982,0.82,0.839,0.996,1.29,0.925,0.838,0.827,0.723,0.577,0.282,,,,
NCI-H650,0.434,0.349,0.424,0.373,0.969,1.04,0.954,0.944,,,,,0.437,0.39,0.296,0.445,0.331,0.325,0.329,0.283
NCI-H1792,0.763,0.826,0.879,0.567,,,,,0.648,0.533,0.834,0.564,0.44,0.387,0.292,0.667,0.652,0.54,0.494,0.576
HCC-44,,,,,,,,,1.04,0.994,0.985,1.02,0.982,0.976,0.999,0.975,0.999,0.999,0.885,0.872
IA-LM,,,,,1.21,1.03,0.963,1.44,0.815,0.583,0.768,0.791,0.92,0.818,0.739,0.845,,,,
NCI-H358,0.157,0.148,0.189,0.17,0.704,0.762,0.771,0.676,,,,,0.584,0.61,0.578,0.581,0.193,0.207,0.19,0.227
NCI-H1563,0.467,0.41,0.46,0.422,0.901,0.926,0.933,1.01,,,,,,,,,,,,
